According to PubChem BioAssay AID1963427 (Molecular Pharmacology Branch, DTP, NCI, 2024):

Tested on: 317291-083-R-J1-PDC complex spheroid growth
Test: Anticancer human tumor 317291-083-R-J1-PDC patient-derived soft tissue sarcoma cell line growth inhibition [Asc]
Settings: for IC50: curve of first compound; for viability, T/C: stronger effect = lower value
Description: Multicellular complex tumor spheroid response to apoptosis pathway targeting inhibitors Alrizomadlin, Pelcitoclax, and Dasminapant in combination with a variety of drugs and investigational agents in selected tumor cell lines
The MDM2 inhibitor alrizomadlin, the Bcl-2/Bcl-xL inhibitor pelcitoclax, and the IAPs inhibitor dasminapant were evaluated both individually and in combination with standard of care and investigational anticancer small molecules within a complex spheroid model of solid tumors. . Complex spheroids include a stromal component modeled by human endothelial cells (HUVEC) and fibroblasts modeled by human mesenchymal stem cells (MSCs). The concentration ranges selected for each drug and investigational agent were based upon clinically achievable concentrations if the clinical Cmax of the agent was known.
Compounds. The drugs and investigational agents: alrizomadlin (APG-115; NSC831270), pelcitoclax (APG-1252; NSC835773), dasminapant (APG-1387;NSC834197), TAK-243 (NSC785004), copanlisib (NSC809693), olaparib (NSC753686), talazoparib (NSC767125), cobimetinib (NSC 768068), eltanexor (KPT-8602, NSC 794443), abemaciclib (NSC 768073), sotorasib (NSC818433), adagrasib (NSC 831453), MRTX-1133 (NSC 836407), Iadademestat (ORY1001, NSC 806812), and RMC-4630 (NSC839698), were obtained from the NCI Developmental Therapeutics Program Chemical Repository. The FDA-approved anticancer drug set is available from the Developmental Therapeutics Program at https://dtp.cancer.gov/organization/dscb/obtaining/available plates.htm. […] The stock solutions were prepared in dimethyl sulfoxide (DMSO, Sigma-Aldrich, St. Louis, MO, cat. D2650) at 800-fold the tested concentration and stored at -70 degrees C prior to their use. All drugs and investigational agents were tested over a range starting from a high concentration at or near the clinical Cmax and decreasing in half-log increments. If the clinical Cmax for an agent had not been determined, the highest concentration tested was 10 microM.
The patient-derived cancer (PDC) cell lines include five colon adenocarcinomas: 186277-243-T-J2-PDC, 616215-338-R-J1-PDC, 439559-082-T-J2-PDC, 463943-066-T-J2-PDC, and 519858-162-T-J1-PDC; three pancreatic carcinomas: 323965-272-R-J2-PDC, 521955-158-R6-J3-PDC, and 521955-158-R2-J5-PDC; two uterine sarcomas: 327498-152-R-J2-PDC and 993429-296-R-J1-PDC; two rhabdomyosarcomas: 755483-174-R-J1-PDC and 772245-204-R-J1-PDC; two soft tissue sarcomas: 126254-015-R-J1-PDC and 494315-158-R-J1-PDC; two malignant fibrous histiocytomas: 317291-083-R-J1-PDC and 596521-263-R-J1-PDC; two breast carcinomas: 171881-019-R-J1-PDC and 885512-296-R-J2-PDC; and one ovarian carcinoma: 6556581-035-R-J-PDC were obtained from the NCI PDMR, (https://pdmr.cancer.gov). The established cell lines HSSY-2 synovial sarcoma (RRID:CVCL 8719), SYO-1 synovial sarcoma (RRID:CVCL_7146), MPNST malignant peripheral neural sheath tumor were obtained from the Sloan Kettering Institute. The following established cell lines were purchased from the American Type Culture Collection (ATCC, Manassas, VA), Sor the received from the NCI repository:, PANC-1 pancreatic carcinoma (CRL-1469, RRID:CVCL_0480), OVCAR-5 ovarian carcinoma (RRID:CVCL_1628), OVCAR-8 ovarian carcinoma (RRID:CVCL_1629), , MCF-7 breast carcinoma (CRL-12584, RRID:CVCL_0031), MDA-MB-231 breast carcinoma (CRL-12532, RRID:CVCL_0062), NCI-H1876 small cell lung carcinoma (CRL-5902, RRID:CVCL_1503), NCI-H510A small cell lung carcinoma (HTB-184, RRID:CVCL_1565), NCI-H1417 (CRL-5869, RRID:CVCL_1469), and NCI-H196 small cell lung carcinoma (CRL-5823, RRID:CVCL_1509). Dr. Peter Houghton (Greehey Children's Cancer Research Institute, University of Texas Health Science Center, San Antonio, TX) provided Rh-18 rhabdomyosarcoma (RRID:CVCL_1659). Pooled donor human umbilical vein endothelial cells (HUVEC, Lonza, cat. CC-2519) and human mesenchymal stem cells (hMSC, Lonza, cat. PT-2501) were purchased from Lonza (Walkersville, MD).
Cell Culture. […]
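Further: compound exposure lasted seven days after spheroids formed for three days.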
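Wherever viability, T/C is given: 100% = DMSO vehicle control wells.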

For `C#Cc1c(F)ccc2cc(O)cc(-c3ncc4c(N5CC6CCC(C5)N6)nc(OCC56CCCN5CC(F)C6)nc4c3F)c12` (centres undefined) + Cc1c(S(C)(=O)=O)c(-c2cc(F)cc(N3CCN(c4ccc(NS(=O)(=O)c5ccc(NC(CCN6CCC(C(=O)OCCCP(=O)(O)O)CC6)CSc6ccccc6)c(S(=O)(=O)C(F)(F)F)c5)cc4)CC3)c2)c(-c2ccc(Cl)cc2)n1C(C)C, the IC50 (second compound 0.0316 µM) was greater than 10 µM, the IC50 (second compound 0.1 µM) was greater than 10 µM and the IC50 (second compound 0.316 µM) was greater than 10 µM. The IC50 (second compound 1 µM) was greater than 10 µM, the IC50 (second compound 3.16 µM) was greater than 10 µM and the IC50 (second compound 10 µM) was 9.94 µM. For the same compound, the viability, T/C (second compound 0.0316 µM, first compound 0.0316 µM) was 105%, the viability, T/C (second compound 0.0316 µM, first compound 0.1 µM) was 89% and the viability, T/C (second compound 0.0316 µM, first compound 0.316 µM) was 102%. For the same compound, the viability, T/C (second compound 0.0316 µM, first compound 1 µM) was 84.6%, the viability, T/C (second compound 0.0316 µM, first compound 3.16 µM) was 96.7% and the viability, T/C (second compound 0.0316 µM, first compound 10 µM) was 68.8%. It also gave a viability, T/C (second compound 0.1 µM, first compound 0.0316 µM) of 86.5%, a viability, T/C (second compound 0.1 µM, first compound 0.1 µM) of 101% and a viability, T/C (second compound 0.1 µM, first compound 0.316 µM) of 92.1%. It also gave a viability, T/C (second compound 0.1 µM, first compound 1 µM) of 87.7%, a viability, T/C (second compound 0.1 µM, first compound 3.16 µM) of 96.7% and a viability, T/C (second compound 0.1 µM, first compound 10 µM) of 70.1%. The viability, T/C (second compound 0.316 µM, first compound 0.0316 µM) was 93.9%, the viability, T/C (second compound 0.316 µM, first compound 0.1 µM) was 87.3% and the viability, T/C (second compound 0.316 µM, first compound 0.316 µM) was 80.3%. It also gave a viability, T/C (second compound 0.316 µM, first compound 1 µM) of 78.9%, a viability, T/C (second compound 0.316 µM, first compound 3.16 µM) of 80.3% and a viability, T/C (second compound 0.316 µM, first compound 10 µM) of 62.5%. For the same compound, the viability, T/C (second compound 1 µM, first compound 0.0316 µM) was 90.7%, the viability, T/C (second compound 1 µM, first compound 0.1 µM) was 70.3% and the viability, T/C (second compound 1 µM, first compound 0.316 µM) was 83.4%. It also gave a viability, T/C (second compound 1 µM, first compound 1 µM) of 67.6%, a viability, T/C (second compound 1 µM, first compound 3.16 µM) of 74.9% and a viability, T/C (second compound 1 µM, first compound 10 µM) of 58.4%. It also gave a viability, T/C (second compound 3.16 µM, first compound 0.0316 µM) of 75.5%, a viability, T/C (second compound 3.16 µM, first compound 0.1 µM) of 67.1% and a viability, T/C (second compound 3.16 µM, first compound 0.316 µM) of 68.9%. It also gave a viability, T/C (second compound 3.16 µM, first compound 1 µM) of 71.7%, a viability, T/C (second compound 3.16 µM, first compound 3.16 µM) of 74.3% and a viability, T/C (second compound 3.16 µM, first compound 10 µM) of 53.2%. It also gave a viability, T/C (second compound 10 µM, first compound 0.0316 µM) of 79.9%, a viability, T/C (second compound 10 µM, first compound 0.1 µM) of 101% and a viability, T/C (second compound 10 µM, first compound 0.316 µM) of 89.2%. The viability, T/C (second compound 10 µM, first compound 1 µM) was 76.9%, the viability, T/C (second compound 10 µM, first compound 3.16 µM) was 80.5% and the viability, T/C (second compound 10 µM, first compound 10 µM) was 49.1%.
`CCN1C(C(=O)NC23CCC(C(=O)O)(CC2)CC3)C(c2cccc(Cl)c2F)C2(C(=O)Nc3cc(Cl)ccc32)C12CCCCC2` (centres undefined) + CNC(C)C(=O)NC1CN(S(=O)(=O)c2cccc(S(=O)(=O)N3CCC4CCC(C(=O)NC(c5ccccc5)c5ccccc5)N4C(=O)C(NC(=O)C(C)NC)C3)c2)CCC2CCC(C(=O)NC(c3ccccc3)c3ccccc3)N2C1=O was tested, and the IC50 (second compound 0.00316 µM) was greater than 3 µM, the IC50 (second compound 0.01 µM) was greater than 3 µM and the IC50 (second compound 0.0316 µM) was greater than 3 µM. The IC50 (second compound 0.1 µM) was greater than 3 µM, the IC50 (second compound 0.316 µM) was less than 0.00949 µM and the IC50 (second compound 1 µM) was less than 0.00949 µM. The viability, T/C (second compound 0.00316 µM, first compound 0.00949 µM) was 86%, the viability, T/C (second compound 0.00316 µM, first compound 0.03 µM) was 113% and the viability, T/C (second compound 0.00316 µM, first compound 0.0949 µM) was 100%. The viability, T/C (second compound 0.00316 µM, first compound 0.3 µM) was 108%, the viability, T/C (second compound 0.00316 µM, first compound 0.949 µM) was 84.6% and the viability, T/C (second compound 0.00316 µM, first compound 3 µM) was 65.1%. For the same compound, the viability, T/C (second compound 0.01 µM, first compound 0.00949 µM) was 68.5%, the viability, T/C (second compound 0.01 µM, first compound 0.03 µM) was 95.9% and the viability, T/C (second compound 0.01 µM, first compound 0.0949 µM) was 83.7%. For the same compound, the viability, T/C (second compound 0.01 µM, first compound 0.3 µM) was 71.9%, the viability, T/C (second compound 0.01 µM, first compound 0.949 µM) was 63.3% and the viability, T/C (second compound 0.01 µM, first compound 3 µM) was 56.1%. The viability, T/C (second compound 0.0316 µM, first compound 0.00949 µM) was 82.5%, the viability, T/C (second compound 0.0316 µM, first compound 0.03 µM) was 85.6% and the viability, T/C (second compound 0.0316 µM, first compound 0.0949 µM) was 79.2%. The viability, T/C (second compound 0.0316 µM, first compound 0.3 µM) was 78.1%, the viability, T/C (second compound 0.0316 µM, first compound 0.949 µM) was 63.8% and the viability, T/C (second compound 0.0316 µM, first compound 3 µM) was 60.5%. For the same compound, the viability, T/C (second compound 0.1 µM, first compound 0.00949 µM) was 55.4%, the viability, T/C (second compound 0.1 µM, first compound 0.03 µM) was 61.9% and the viability, T/C (second compound 0.1 µM, first compound 0.0949 µM) was 66.2%. It also gave a viability, T/C (second compound 0.1 µM, first compound 0.3 µM) of 67.3%, a viability, T/C (second compound 0.1 µM, first compound 0.949 µM) of 60% and a viability, T/C (second compound 0.1 µM, first compound 3 µM) of 42.5%. The viability, T/C (second compound 0.316 µM, first compound 0.00949 µM) was 47.5%, the viability, T/C (second compound 0.316 µM, first compound 0.03 µM) was 55.3% and the viability, T/C (second compound 0.316 µM, first compound 0.0949 µM) was 45.5%. It also gave a viability, T/C (second compound 0.316 µM, first compound 0.3 µM) of 46.7%, a viability, T/C (second compound 0.316 µM, first compound 0.949 µM) of 49.4% and a viability, T/C (second compound 0.316 µM, first compound 3 µM) of 45.2%. For the same compound, the viability, T/C (second compound 1 µM, first compound 0.00949 µM) was 41.2%, the viability, T/C (second compound 1 µM, first compound 0.03 µM) was 31.3% and the viability, T/C (second compound 1 µM, first compound 0.0949 µM) was 32.4%. It also gave a viability, T/C (second compound 1 µM, first compound 0.3 µM) of 35.4%, a viability, T/C (second compound 1 µM, first compound 0.949 µM) of 30.5% and a viability, T/C (second compound 1 µM, first compound 3 µM) of 27.8%.
